Patent US9781930B2, “3′-substituted-abscisic acid derivatives” (Valent BioSciences Corporation, priority 2014, dated 2017)

Experiments:
[1] = test system: Arabidopsis thaliana seed; assay: Seed germination assay for testing Examples 29-46; format: in vivo; parameters: key: + + + +: The other derivatives were scored by potency relative to S-ABA.; (S)-ABA potency = + + +.; + +: The other derivatives were scored by potency relative to S-ABA.; ++: The other derivatives were scored by potency relative to S-ABA.; +: The other derivatives were scored by potency relative to S-ABA.; −− = no effect; details: 0.16-40 μM in 6-well plates, 4 days after vernalization, compared with (S)-ABA
Experimental: (§1) Seed Germination Assay for Testing Examples 29-46 To determine the germination inhibition potency of the (±)-ABA derivatives, germination assays were performed with the model plant Arabidopsis thaliana. Arabidopsis seed was sterilized by soaking in 70% ethanol solution for 5 minutes, followed by 5% sodium hypochlorite solution for 10 minutes. The seeds were then washed three times with sterile water. The test compounds were tested in germination assay at five concentrations (0.16, 0.64, 2.5, 10, and 40 μM) with (S)-ABA (0.16, 0.64 and 2.5 μM) as a control in 6-well plates. DMSO stock solutions of (S)-ABA and the derivatives at 1,000 fold of the test concentrations were prepared. The stock solutions (5 μL) of (S)-ABA and the derivatives were added to the wells in the assay plate with 0.8% agar solutions of ½ Murashige and Skoog media. Sixteen sterile seeds were placed on the solid agar medium at an appropriate spacing. The assay plates were sealed with surgical tape and wrapped in aluminum foil, and the seeds were vernalized at 4° C. for 2 days. The assay plates were incubated in a growth chamber at 22.5° C. under daily light cycles of 16 hours (30 μmol/m^2·sec) for 4 days after the vernalization. The germination inhibition potency of the derivatives was scored and compared with that of (S)-ABA. The results are summarized in Table 2 “Table 2: Arabidopsis seed germination inhibition activity of (±)-ABA derivatives.”

(S)-ABA 8′-hydroxylase = molecular target: T1, (S)-ABA 8′-hydroxylase (Arabidopsis thaliana, UniProt Q9FH76); details: according to Ueno, et al.; cited from earlier work
T1 sequence (Q9FH76 1-463): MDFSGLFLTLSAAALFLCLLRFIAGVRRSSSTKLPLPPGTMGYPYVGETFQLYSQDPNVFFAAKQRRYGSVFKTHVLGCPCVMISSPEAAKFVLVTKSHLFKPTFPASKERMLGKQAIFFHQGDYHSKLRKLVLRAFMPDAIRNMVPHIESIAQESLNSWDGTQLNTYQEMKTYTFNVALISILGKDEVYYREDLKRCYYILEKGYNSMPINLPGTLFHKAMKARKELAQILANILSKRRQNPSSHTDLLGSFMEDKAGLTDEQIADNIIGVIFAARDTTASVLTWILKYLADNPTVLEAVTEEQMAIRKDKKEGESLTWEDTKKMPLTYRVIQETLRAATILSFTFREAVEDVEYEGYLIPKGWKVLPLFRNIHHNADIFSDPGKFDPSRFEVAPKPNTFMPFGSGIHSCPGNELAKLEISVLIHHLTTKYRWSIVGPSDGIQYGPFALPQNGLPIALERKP

rice seedling = details: according to Ueno, et al.; cited from earlier work
[2] = test system: Arabidopsis thaliana seed; assay: Seed germination assay for testing Examples 29-46; format: in vivo; parameters: key: ++++: The 3′-substituted-derivatives were scored by potency relative to ABA.; (S)-ABA potency = +++.; ++: The 3′-substituted-derivatives were scored by potency relative to ABA.; +: The 3′-substituted-derivatives were scored by potency relative to ABA.; −− = no effect; details: 0.16-40 μM in 6-well plates, 4 days after vernalization, compared with (S)-ABA
Experimental: as §1

[3] = test system: Arabidopsis thaliana seed; assay: Seed germination assay for testing Examples 29-46; format: in vivo
Experimental: as §1

Row | SMILES | Arabidopsis seed germination inhibition potency [1] | also measured
1 | CC1=C(CC(C)C)C(=O)CC(C)(C)C1(O)/C=C/C(C)=C\C(=O)O (racemic) [Example 34, (2Z,4E)-5-(1-hydroxy-3-isobutyl-2,6,6-trimethyl-4-oxocyclohex-2-en-1-yl)-3-methylpenta-2,4-dienoic acid] | −− | 
2 | CC1=C(C2CCCC2)C(=O)CC(C)(C)C1(O)/C=C/C(C)=C\C(=O)O (racemic) [Example 42, (2Z,4E)-5-(3-cyclopentyl-1-hydroxy-2,6,6-trimethyl-4-oxocyclohex-2-en-1-yl)-3-methylpenta-2,4-dienoic acid] | −− | 
3 | CC1=C(C2(C)CC2)C(=O)CC(C)(C)C1(O)/C=C/C(C)=C\C(=O)O (racemic) [Example 36, (2Z,4E)-5-(1-hydroxy-2,6,6-trimethyl-3-(1-methylcyclopropyl)-4-oxocyclohex-2-en-1-yl)-3-methylpenta-2,4-dienoic acid] | −− | 
4 | CC1=C(C(C)(C)C)C(=O)CC(C)(C)C1(O)/C=C/C(C)=C\C(=O)O (racemic) [Example 35, (2Z,4E)-5-(3-(tert-butyl)-1-hydroxy-2,6,6-trimethyl-4-oxocyclohex-2-en-1-yl)-3-methylpenta-2,4-dienoic acid] | −− | 
5 | CC1=C(c2ccccc2)C(=O)CC(C)(C)C1(O)/C=C/C(C)=C\C(=O)O (racemic) [Example 46, (2Z,4E)-5-(3-hydroxy-2,4,4-trimethyl-6-oxo-3,4,5,6-tetrahydro-[1,1′-biphenyl]-3-yl)-3-methylpenta-2,4-dienoic acid] | −− | 
6 | CC1=C(C)C(O)(/C=C/C(C)=C\C(=O)O)C(C)(C)CC1=O (racemic) [(±)-3′-methyl-ABA] |  | activity in (S)-ABA 8′-hydroxylase inhibition assay compared to (S)-ABA ((S)-ABA 8′-hydroxylase): lower activity than (S)-ABA; activity in rice seedling elongation assay compared to (S)-ABA (rice seedling): equal activity to (S)-ABA
7 | CCCCCCC1=C(C)C(O)(/C=C/C(C)=C\C(=O)O)C(C)(C)CC1=O (racemic) [Example 37, (2Z,4E)-5-(3-hexyl-1-hydroxy-2,6,6-trimethyl-4-oxocyclohex-2-en-1-yl)-3-methylpenta-2,4-dienoic acid] | −− | 
8 | CC1=C(C(F)(F)F)C(=O)CC(C)(C)C1(O)/C=C/C(C)=C\C(=O)O (racemic) [Example 45, (2Z,4E)-5-(1-hydroxy-2,6,6-trimethyl-4-oxo-3-(trifluoromethyl)cyclohex-2-en-1-yl)-3-methylpenta-2,4-dienoic acid] |  | Arabidopsis seed germination inhibition potency [2]: ++++; germination inhibition activity compared to (S)-ABA (in words) [3]: more active than (S)-ABA
